System: hepatocytes
Experiment: Drug distribution / efflux fraction analysis in cultured hepatocytes (basolateral efflux, biliary excretion, intracellular fraction)
Assay type: in vitro ADME, rat
Settings: for ratio of the amount of drug excreted into the bile duct to the total amount of drug taken up into the cells (BiRD), (B1−B2)/(C1+C2): pattern 1, sequences 1 (EGTA disrupted) and 2 (maintained), 37° C.; for ratio of the amount of drug excreted into the bile duct to the total amount of drug taken up into the cells (BiRD), (B1−B2)/(C1+C2) / Sup fraction (first fraction of the basolateral efflux, S1), index for tendency to remain or not to remain in the cells: 30 minutes; for ratio of the amount of drug excreted into the bile duct to the total amount of drug taken up into the cells (BiRD), (B1−B2)/(C1+C2) / ratio of the amount of drug excreted via transporter to the amount of drug excreted to the basolateral side (RexEMTP), (B2-B3)/B2: fluorescence; for ratio of the amount of drug excreted via transporter to the amount of drug excreted to the basolateral side (RexEMTP), (B2-B3)/B2: pattern 1, step 5, 30 minutes, sequences 2 (37° C.) and 3 (4° C.); for Sup fraction (first fraction of the basolateral efflux, S1), index for tendency to remain or not to remain in the cells: pattern 2 (sum of steps 4, 5, 6 = 100%), step 4, 37° C., in %
Method: Hepatocytes were prepared by in situ collagenase perfusion method. The details are as follows. A rat (5-6 week-old) is anesthetized with pentobarbital and laparotomy is performed to insert a catheter into the portal vein and inject the preperfusion solution (a Ca^2+ and Mg^2+ free Hanks' solution containing EGTA). After confirming that blood is sufficiently removed from the liver, the perfusion is stopped. The perfusate is changed into a collagenase solution to conduct perfusion. In this embodiment, the perfusion is conducted with a Hanks' solution containing 0.05% collagenase, but the collagenase solution is not limited to this. Once confirmed that the tissue between the cells was digested by collagenase, the perfusion is stopped. The liver is excised, sliced in a cooled Hanks' solution, and separated into cells by pipetting. Damaged hepatocytes are removed by centrifugation at 500 G for 5 minutes with an isotonic Percoll solution. The viability of the resultant hepatocytes is determined by the trypan blue-exclusion test. Hepatocytes having a viability of 85% or more are used for culture. Here, hepatocytes having a viability of 85% or more are used for culture, but such culture is, needless to say, not necessarily limited to the condition. In addition, the preparation of hepatocytes is not necessarily limited to that by in situ collagenase perfusion method. The hepatocytes to be used are not limited to those derived from a rat and the strain of rat is not limited. This embodiment uses hepatocytes, but cells are not limited to this.
Hepatocytes prepared by in situ collagenase perfusion method as described above are suspended in a medium. The hepatocytes are suspended at a density of 5×10^5 cells/mL in a medium and plated onto a commercially available culture dish coated with collagen. The density upon plating, the medium, and the culture plate 001 are not particularly limited. The culture plate is illustrated in FIG. 1. A 24 well culture plate having 24 culture regions (wells, 002) is here illustrated, but the culture plate is not limited to this as long as it can contain predetermined cells and containers in other shapes may be used. After plating, culture is started under conditions of 5% CO2 and 37° C. using a CO2 incubator. After 18 hours or more, the first medium change is conducted. Although the medium to be used for culture 18 hours after the plating is not particularly limited, in this embodiment, the medium (FCS−), a medium in which FCS is removed from the medium (10% FCS+), supplemented with Matrigel is used. After this, medium change with the medium (FCS−) is conducted every 24 hours. As described later, testing is conducted under three different conditions (sequences 1, 2, and 3: described in detail in step 5) in step 5, three independent culture plates with the same conditions are prepared at this point. In steps 0 to 4 and step 5, the same testing operations are conducted in all the three sequences.
The culture supernatant of the cells cultured in step 0 for 4 days is removed and 400 μL of Hanks' solution is added as a buffer. The cells are incubated at 37° C. for 10 minutes (FIG. 2, step 1). The type and amount of buffer are not particularly limited.
The buffer is removed, and then 200 μL of 10 μM CDF (a fluorescent reagent) is added to the well. The plate is incubated at 37° C. for 30 minutes and then maintained at 4° C. for 5 minutes (FIG. 2, step 2). The type, concentration, and amount of the reagent are not particularly limited. CDF emits fluorescence and can be therefore easily quantified by a plate reader as a model reagent. The amount of administration, 200 μL, was chosen so that the cells as a whole in the well would be immersed in the reagent. The concentration of CDF may be a concentration conventionally used for a fluorescence assay of cells. This concentration is preferably applied as an amount of the reagent for the detection with a plate reader. […]

Row | ratio of the amount of drug excreted into the bile duct to the total amount of drug taken up into the cells (BiRD), (B1−B2)/(C1+C2) | ratio of the amount of drug excreted via transporter to the amount of drug excreted to the basolateral side (RexEMTP), (B2-B3)/B2 | Sup fraction (first fraction of the basolateral efflux, S1), index for tendency to remain or not to remain in the cells | Substance
1 | 18.58 | 41.08 | 70.82 | CDF
2 | 4.92 | 52.52 | 39.29 | Rhodamine123

Source: patent US11789013B2, “Componential analyzer, drug efficacy analyzer, and analysis method” (Hitachi High-Tech Corporation, priority 2013, dated 2023)
